For the assay, the system named is stage 2 neural progenitors. As to the kind of experiment: HD-DoE 12-factor model for stage 3 recipe (FIG. 19-23, 29). The assay is classed as cell-based, human.

Consider `Cc1c[nH]c(-c2cnc(NCCNc3ccc(C#N)cn3)nc2-c2ccc(Cl)cc2Cl)n1` [CHIR99021], for which the “impact on expression of KCNJ6” value (dynamic profile, 12 effectors) is recorded as “positive impact”. Further, the factor contribution was 10.9 (model maximizing expression of CORIN, negative impact) and 10.7 (model optimized for maximum expression of KCNJ6, positive regulators). Moreover, the “expression level of KCNJ6 in absence of the factor” value (stage 3 recipe, other factors present, 50 with all factors) is recorded as 50. Besides, the “expression level of SOX6 in absence of the factor” value (stage 3 recipe, other factors present, 105 with all factors) is 125. Also, the “expression level of MSX1 in absence of the factor” value (stage 3 recipe, other factors present, 140 with all factors) was found to be 115. Further, the “expression level of CORIN in absence of the factor” value (stage 3 recipe, other factors present, 900 with all factors) was determined as 1200.

The record behind these values is patent US20240117303A1, “METHODS AND COMPOSITIONS FOR GENERATING HUMAN MIDBRAIN DOPAMINERGIC NEURONS FROM NEURAL PROGENITOR CELLS” (Trailhead Biosystems Inc., priority 2022, published 2024).
